Test results as given in patent US11542313B2, “Incretin analogs and uses thereof” (Eli Lilly and Company, priority 2017, dated 2023).
*1 amine or outer side, *2 acyl side, *3 side chain or, on linkers, in order; H or OH if unused. Where a SMILES comes first, the peptide text is derived from it. Side-chain parts run from the residue outwards. [ ]: non-standard residue; d: D form. The star is where a group is joined. C20 diacid = O=C(O)CCCCCCCCCCCCCCCCCCC(=O)*; γGlu = O=C(O)[C@H](CCC(=O)[*:2])N[*:1]; αMeL = CC(C)C[C@](C)(N)C(=O)O; AEEA = NCCOCCOCC(=O)O; Aib = CC(C)(N)C(=O)O

Assays:
hGIPR = target: T1, hGIPR (Homo sapiens, UniProt P48546); experiment: cAMP assay in HEK293 cells expressing hGIPR, 0.1% casein; assay type: cell-based; conditions: in the presence of 0.1% casein; read-out: cAMP EC50, GIPR
T1 construct: expressed in transfected cells; host or cells: HEK293
T1 sequence (P48546 22-466): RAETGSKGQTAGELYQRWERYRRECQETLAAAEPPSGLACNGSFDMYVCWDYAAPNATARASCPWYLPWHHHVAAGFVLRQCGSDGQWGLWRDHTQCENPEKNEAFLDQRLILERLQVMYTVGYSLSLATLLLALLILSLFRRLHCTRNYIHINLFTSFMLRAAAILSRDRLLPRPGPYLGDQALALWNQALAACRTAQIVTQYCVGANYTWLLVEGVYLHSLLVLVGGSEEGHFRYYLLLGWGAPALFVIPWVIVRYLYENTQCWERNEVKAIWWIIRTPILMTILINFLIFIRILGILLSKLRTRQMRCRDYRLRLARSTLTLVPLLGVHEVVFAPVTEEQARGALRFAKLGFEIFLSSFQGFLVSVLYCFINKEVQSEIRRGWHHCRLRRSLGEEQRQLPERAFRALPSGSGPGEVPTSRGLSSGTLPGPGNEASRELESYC

[1] = target: T2, human GIP receptor (GIPR) (Homo sapiens, UniProt P48546); experiment: Radioligand competition binding (SPA), human GIPR membranes; conditions: HEK293 membranes, SPA, bacitracin present; mean; read-out: Ki, GIPR
T2 construct: expressed in transfected cells; host or cells: HEK293 (membranes)
T2 sequence (P48546 22-466): T1 sequence (P48546 22-466)
Text: (§1) Radioligand competition binding assays are run to determine the equilibrium dissociation constant for exemplary compounds and comparator molecules.
(§2) Competition curves are plotted as the percent specific inhibition (y-axis) versus log concentration of compound (x-axis) and analyzed using a four parameter nonlinear regression fit with variable slope (ABase or Genedata).

hGcgR = target: T3, hGcgR (Homo sapiens, UniProt P47871); experiment: cAMP assay in HEK293 cells expressing hGcgR, 0.1% casein; assay type: cell-based; conditions: in the presence of 0.1% casein; read-out: cAMP EC50, GcGR
T3 construct: expressed in transfected cells; host or cells: HEK293

[2] = target: T4, human glucagon receptor (GcgR) (Homo sapiens, UniProt P47871); experiment: Radioligand competition binding (SPA), human GcgR membranes; conditions: HEK293 membranes, SPA, bacitracin present; mean; read-out: Ki, GcgR
T4 construct: expressed in transfected cells; host or cells: HEK293 (membranes)
Text: as §1, §2

hGLP-1R = hGLP-1R (Homo sapiens, UniProt P43220); experiment: cAMP assay in HEK293 cells expressing hGLP-1R, 0.1% casein; assay type: cell-based; conditions: in the presence of 0.1% casein; read-out: cAMP EC50, GLP-1R
GLP-1 receptor (GLP-1R) = target: T5, GLP-1 receptor (GLP-1R) (Homo sapiens, UniProt P43220); experiment: Radioligand competition binding (SPA), human GLP-1R membranes; conditions: HEK293 membranes, SPA, bacitracin present; mean; read-out: Ki, GLP-1R
T5 construct: expressed in transfected cells; host or cells: HEK293 (membranes)
Text: as §1, §2

T4 sequence (P47871 26-477): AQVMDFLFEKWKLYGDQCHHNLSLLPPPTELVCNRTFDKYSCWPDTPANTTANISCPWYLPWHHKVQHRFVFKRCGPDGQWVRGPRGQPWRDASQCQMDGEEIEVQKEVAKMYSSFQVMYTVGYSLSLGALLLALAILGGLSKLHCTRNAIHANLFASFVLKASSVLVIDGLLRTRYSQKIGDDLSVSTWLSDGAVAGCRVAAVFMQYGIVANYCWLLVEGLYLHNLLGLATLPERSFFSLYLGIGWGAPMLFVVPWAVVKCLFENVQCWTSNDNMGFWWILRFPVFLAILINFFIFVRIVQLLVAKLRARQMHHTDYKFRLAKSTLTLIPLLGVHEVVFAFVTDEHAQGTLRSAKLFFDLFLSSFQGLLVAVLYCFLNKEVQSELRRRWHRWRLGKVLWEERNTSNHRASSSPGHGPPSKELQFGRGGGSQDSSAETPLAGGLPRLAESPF
T3 sequence (P47871 26-477): as above
Chain of hGLP-1R (P43220 24-463): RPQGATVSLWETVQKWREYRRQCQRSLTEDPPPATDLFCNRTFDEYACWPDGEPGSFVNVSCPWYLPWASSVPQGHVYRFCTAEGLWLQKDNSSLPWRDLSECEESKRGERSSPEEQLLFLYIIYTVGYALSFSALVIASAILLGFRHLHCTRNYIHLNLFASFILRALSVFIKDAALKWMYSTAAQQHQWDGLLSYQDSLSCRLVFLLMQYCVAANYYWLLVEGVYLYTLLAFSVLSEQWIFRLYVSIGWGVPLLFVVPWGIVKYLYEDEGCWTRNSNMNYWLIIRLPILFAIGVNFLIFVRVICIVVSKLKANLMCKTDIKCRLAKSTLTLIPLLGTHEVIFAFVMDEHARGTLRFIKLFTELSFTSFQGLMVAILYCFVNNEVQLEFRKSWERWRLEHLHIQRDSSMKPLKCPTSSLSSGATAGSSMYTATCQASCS
T5 sequence (P43220 24-463): as above

SMILES	EC50 (hGIPR) [nM]	Ki [1] [nM]	EC50 (hGcgR) [nM]	Ki [2] [nM]	EC50 (hGLP-1R) [nM]	Ki (GLP-1 receptor (GLP-1R)) [nM]
CC[C@H](C)[C@H](NC(=O)[C@H](Cc1ccccc1)NC(=O)[C@H](C)NC(=O)[C@H](Cc1c[nH]cn1)NC(=O)[C@H](CCC(N)=O)NC(=O)[C@H](C)NC(=O)[C@H](CCCCNC(=O)COCCOCCNC(=O)CC[C@H](NC(=O)CCCCCCCCCCCCCCCCCCC(=O)O)C(=O)O)NC(=O)[C@H](CCCCN)NC(=O)[C@H](CC(=O)O)NC(=O)[C@H](CC(C)C)NC(=O)[C@](C)(CC(C)C)NC(=O)[C@@H](NC(=O)[C@H](CO)NC(=O)[C@H](Cc1ccc(O)cc1)NC(=O)[C@H](CC(=O)O)NC(=O)[C@H](CO)NC(=O)[C@@H](NC(=O)[C@H](Cc1ccccc1)NC(=O)[C@@H](NC(=O)CNC(=O)[C@H](CCC(N)=O)NC(=O)C(C)(C)NC(=O)[C@@H](N)Cc1ccc(O)cc1)[C@@H](C)O)[C@@H](C)O)[C@@H](C)CC)C(=O)N[C@@H](CCC(=O)O)C(=O)N[C@@H](Cc1ccc(O)cc1)C(=O)N[C@@H](CC(C)C)C(=O)N[C@@H](CC(C)C)C(=O)N[C@@H](C)C(=O)NC(C)(C)C(=O)NCC(=O)N1CCC[C@H]1C(=O)N[C@@H](CO)C(=O)N[C@@H](CO)C(=O)NCC(=O)N[C@@H](C)C(=O)N1CCC[C@H]1C(=O)N1CCC[C@H]1C(=O)N1CCC[C@H]1C(=O)N[C@@H](CO)C(N)=O [Example 2] (H-Y[Aib]QGTFTSDYSI[αMeL]LDKK([AEEA-γGlu-C20 diacid])AQHAFIEYLLA[Aib]GPSSGAPPPS-NH2)	0.0474	0.0665	0.0553	3.71	0.207	4.5
CC[C@H](C)[C@H](NC(=O)[C@H](Cc1ccccc1)NC(=O)[C@H](C)NC(=O)[C@H](CCC(N)=O)NC(=O)[C@H](C)NC(=O)[C@H](C)NC(=O)[C@H](CCCCNC(=O)COCCOCCNC(=O)COCCOCCNC(=O)CC[C@H](NC(=O)CCCCCCCCCCCCCCCCCCC(=O)O)C(=O)O)NC(=O)[C@H](CCCCN)NC(=O)[C@H](CC(=O)O)NC(=O)[C@H](CC(C)C)NC(=O)[C@](C)(CC(C)C)NC(=O)[C@@H](NC(=O)[C@H](CO)NC(=O)[C@H](Cc1ccc(O)cc1)NC(=O)[C@H](CC(=O)O)NC(=O)[C@H](CO)NC(=O)[C@@H](NC(=O)[C@H](Cc1ccccc1)NC(=O)[C@@H](NC(=O)CNC(=O)[C@H](CCC(N)=O)NC(=O)C(C)(C)NC(=O)[C@@H](N)Cc1ccc(O)cc1)[C@@H](C)O)[C@@H](C)O)[C@@H](C)CC)C(=O)N[C@@H](CCC(=O)O)C(=O)N[C@@H](Cc1ccc(O)cc1)C(=O)N[C@@H](CC(C)C)C(=O)N[C@@H](CC(C)C)C(=O)N[C@@H](CCC(=O)O)C(=O)NC(C)(C)C(=O)NCC(=O)N1CCC[C@H]1C(=O)N[C@@H](CO)C(=O)N[C@@H](CO)C(=O)NCC(=O)N[C@@H](C)C(=O)N1CCC[C@H]1C(=O)N1CCC[C@H]1C(=O)N1CCC[C@H]1C(=O)N[C@@H](CO)C(N)=O [Example 5] (H-Y[Aib]QGTFTSDYSI[αMeL]LDKK([AEEA-AEEA-γGlu-C20 diacid])AAQAFIEYLLE[Aib]GPSSGAPPPS-NH2)	0.0757	0.179	0.0226	0.422	0.147	36.7
CC[C@H](C)[C@H](NC(=O)[C@H](Cc1ccccc1)NC(=O)[C@H](C)NC(=O)[C@H](Cc1c[nH]cn1)NC(=O)[C@H](CCC(N)=O)NC(=O)[C@H](C)NC(=O)[C@H](CCCCNC(=O)CC[C@H](NC(=O)CC[C@H](NC(=O)CCCCCCCCCCCCCCCCCCC(=O)O)C(=O)O)C(=O)O)NC(=O)[C@H](CCCCN)NC(=O)[C@H](CC(=O)O)NC(=O)[C@H](CC(C)C)NC(=O)[C@](C)(CC(C)C)NC(=O)[C@@H](NC(=O)[C@H](CO)NC(=O)[C@H](Cc1ccc(O)cc1)NC(=O)[C@H](CC(=O)O)NC(=O)[C@H](CO)NC(=O)[C@@H](NC(=O)[C@H](Cc1ccccc1)NC(=O)[C@@H](NC(=O)CNC(=O)[C@H](CCC(N)=O)NC(=O)C(C)(C)NC(=O)[C@@H](N)Cc1ccc(O)cc1)[C@@H](C)O)[C@@H](C)O)[C@@H](C)CC)C(=O)N[C@@H](CCC(=O)O)C(=O)N[C@@H](Cc1ccc(O)cc1)C(=O)N[C@@H](CC(C)C)C(=O)N[C@@H](CC(C)C)C(=O)N[C@@H](CCC(=O)O)C(=O)NCC(=O)NCC(=O)N1CCC[C@H]1C(=O)N[C@@H](CO)C(=O)N[C@@H](CO)C(=O)NCC(=O)N[C@@H](C)C(=O)N1CCC[C@H]1C(=O)N1CCC[C@H]1C(=O)N1CCC[C@H]1C(=O)N[C@@H](CO)C(N)=O [Example 9] (H-Y[Aib]QGTFTSDYSI[αMeL]LDKK([γGlu-γGlu-C20 diacid])AQHAFIEYLLEGGPSSGAPPPS-NH2; N-terminus assumed)	0.0522	0.126	0.139	8.27	0.0931	11.5
CC[C@H](C)[C@H](NC(=O)[C@H](Cc1ccccc1)NC(=O)[C@H](C)NC(=O)C(C)(C)NC(=O)[C@H](CCC(N)=O)NC(=O)[C@H](C)NC(=O)[C@H](CCCCNC(=O)COCCOCCNC(=O)CC[C@H](NC(=O)CC[C@H](NC(=O)CCCCCCCCCCCCCCCCCCC(=O)O)C(=O)O)C(=O)O)NC(=O)[C@H](CCCCN)NC(=O)[C@H](CC(=O)O)NC(=O)[C@H](CC(C)C)NC(=O)[C@H](CC(C)C)NC(=O)[C@@H](NC(=O)[C@H](CO)NC(=O)[C@H](Cc1ccc(O)cc1)NC(=O)[C@H](CC(=O)O)NC(=O)[C@H](CO)NC(=O)[C@@H](NC(=O)[C@H](Cc1ccccc1)NC(=O)[C@@H](NC(=O)CNC(=O)[C@H](CCC(N)=O)NC(=O)C(C)(C)NC(=O)[C@@H](N)Cc1ccc(O)cc1)[C@@H](C)O)[C@@H](C)O)[C@@H](C)CC)C(=O)N[C@@H](CCC(=O)O)C(=O)N[C@@H](Cc1ccc(O)cc1)C(=O)N[C@@H](CC(C)C)C(=O)N[C@@H](CC(C)C)C(=O)N[C@@H](CCC(=O)O)C(=O)NC(C)(C)C(=O)NCC(=O)N1CCC[C@H]1C(=O)N[C@@H](CO)C(=O)N[C@@H](CO)C(=O)NCC(=O)N[C@@H](C)C(=O)N1CCC[C@H]1C(=O)N1CCC[C@H]1C(=O)N1CCC[C@H]1C(=O)N[C@@H](CO)C(N)=O [Example 19] (H-Y[Aib]QGTFTSDYSILLDKK([AEEA-γGlu-γGlu-C20 diacid])AQ[Aib]AFIEYLLE[Aib]GPSSGAPPPS-NH2; N-terminus assumed)	0.0455	0.0789	0.0874	5.2	0.143	12
CC[C@H](C)[C@H](NC(=O)[C@H](Cc1ccccc1)NC(=O)[C@H](C)NC(=O)C(C)(C)NC(=O)[C@H](CCC(N)=O)NC(=O)[C@H](C)NC(=O)[C@H](CCCCNC(=O)COCCOCCNC(=O)COCCOCCNC(=O)CC[C@H](NC(=O)CCCCCCCCCCCCCCCCCCC(=O)O)C(=O)O)NC(=O)[C@H](CCCCN)NC(=O)[C@H](CC(=O)O)NC(=O)[C@H](CC(C)C)NC(=O)[C@H](CC(C)C)NC(=O)[C@@H](NC(=O)[C@H](CO)NC(=O)[C@H](Cc1ccc(O)cc1)NC(=O)[C@H](CC(=O)O)NC(=O)[C@H](CO)NC(=O)[C@@H](NC(=O)[C@H](Cc1ccccc1)NC(=O)[C@@H](NC(=O)CNC(=O)[C@H](CCC(N)=O)NC(=O)C(C)(C)NC(=O)[C@@H](N)Cc1ccc(O)cc1)[C@@H](C)O)[C@@H](C)O)[C@@H](C)CC)C(=O)N[C@@H](CCC(=O)O)C(=O)N[C@@H](Cc1ccc(O)cc1)C(=O)N[C@@H](CC(C)C)C(=O)N[C@@H](CC(C)C)C(=O)N[C@@H](C)C(=O)NC(C)(C)C(=O)NCC(=O)N1CCC[C@H]1C(=O)N[C@@H](CO)C(=O)N[C@@H](CO)C(=O)NCC(=O)N[C@@H](C)C(=O)N1CCC[C@H]1C(=O)N1CCC[C@H]1C(=O)N1CCC[C@H]1C(=O)N[C@@H](CO)C(N)=O [Example 15] (H-Y[Aib]QGTFTSDYSILLDKK([AEEA-AEEA-γGlu-C20 diacid])AQ[Aib]AFIEYLLA[Aib]GPSSGAPPPS-NH2; N-terminus assumed)	0.0689	0.0972	0.131	4.56	0.253	5.8
